The values that follow are results of earlier work, collected in patent publication US8715648B2, “Method for treating obesity with anti-obesity formulations and omega 3 fatty acids for the reduction of body weight in cardiovascular disease patients (CVD) and diabetics” (Pivotal Therapeutics Inc., priority 2011, dated 2014).

Structures are written as SMILES.

The data set concerns the target CB1R (Homo sapiens, UniProt P21554). As to conditions: in vivo.

CB1R, sequence (P21554 whole entry): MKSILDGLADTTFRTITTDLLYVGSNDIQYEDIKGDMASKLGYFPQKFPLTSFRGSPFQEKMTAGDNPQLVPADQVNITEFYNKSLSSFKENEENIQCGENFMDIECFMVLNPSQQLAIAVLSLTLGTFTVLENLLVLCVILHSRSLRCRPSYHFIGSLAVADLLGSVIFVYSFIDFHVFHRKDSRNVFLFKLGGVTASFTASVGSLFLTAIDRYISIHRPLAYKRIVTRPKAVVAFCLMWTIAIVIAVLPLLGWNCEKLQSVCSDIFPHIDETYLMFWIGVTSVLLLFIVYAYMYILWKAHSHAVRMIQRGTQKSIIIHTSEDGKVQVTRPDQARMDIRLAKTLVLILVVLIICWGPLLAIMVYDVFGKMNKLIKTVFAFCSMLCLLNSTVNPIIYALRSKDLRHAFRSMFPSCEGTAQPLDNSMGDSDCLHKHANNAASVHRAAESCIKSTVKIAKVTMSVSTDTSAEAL

Take `CCNC1(C(N)=O)CCN(c2ncnc3c2nc(-c2ccccc2Cl)n3-c2ccc(Cl)cc2)CC1.Cl` [CP-945,598]: the “Reason for failure of phase III clinical trials” value was “psychiatric adverse reactions, including severe depression and anxiety”.
